# Source: paper PMC5938390, “Tachyplesin Causes Membrane Instability That Kills Multidrug-Resistant Bacteria by Inhibiting the 3-Ketoacyl Carrier Protein Reductase FabG” (Frontiers in Microbiology, 2018)
# Positions of bridges follow the written chain, without caps; N, C: chain ends. No end group written: not given here.
# T1: 3-ketoacyl carrier protein reductase FabG from E. coli (E. coli, UniProt P0AEK2 1-244)
# T1 construct: FabG, 3-ketoacyl-acyl carrier protein reductase, E. coli; cloned into the NcoI and XhoI sites of pET28a; also called 3-ketoacyl-acyl carrier protein reductase; β-ketoacyl-acyl carrier protein (ACP) reductase FabG; source: E. coli BL21 DE3 (pET28a), purified with Ni resin
# T1 sequence: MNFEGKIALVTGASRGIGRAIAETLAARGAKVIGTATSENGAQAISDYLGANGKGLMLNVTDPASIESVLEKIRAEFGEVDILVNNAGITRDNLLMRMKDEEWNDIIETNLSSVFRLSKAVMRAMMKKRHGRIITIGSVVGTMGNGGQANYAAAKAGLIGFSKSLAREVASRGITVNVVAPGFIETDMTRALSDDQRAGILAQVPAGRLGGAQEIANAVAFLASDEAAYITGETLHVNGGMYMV
# B1: tachyplesin III (peptide)
# peptide: KWCFRVCYRGICYRKCR
# modifications: disulfide 7-12, 3-16; ends not checked
# notes: tachyplesin III, cationic beta-hairpin antimicrobial peptide from horseshoe crab hemocytes; 17 residues; Coupled to the CM5 chip through amines in the SPR; source: synthetic peptide (purity ≥ 95%, synthesized by GL Biochem Co., Ltd, Shanghai, China)
# Key:
# [1] = tested on: P. aeruginosa strain 1409; experiment: Membrane rupture by propidium iodide staining; assay type: cell-based, Pseudomonas aeruginosa; conditions: LB medium, 25°C, 1 h, then PI 10 μg/ml 30 min
# Description: These studies were carried out as we previously reported with slight modifications and briefly introduced as follows ([Liu et al., 2017]). […] Cytotoxicity in different cell lines was assessed using the Cell Proliferation Kit II (XTT) (Roche), and cytotoxicity in hemocytes was evaluated by the increase in the absorbance at 540 nm after peptide incubation. Membrane rupture was indicated by the entrance of the DNA-binding fluorescent dye PI into MDR clinical isolates of P. aeruginosa strain 1409. Membrane translocation of N-terminal FITC-conjugated tachyplesin III (purity ≥ 95%, synthesized by GL Biochem Co., Ltd, Shanghai, China) into MDR clinical isolates of Acinetobacter baumannii strain 1408 were detected by confocal laser-scanning microscopy.
# After centrifugation at 3000 g for 10 min, cells were resuspended in the same volume of PBS (phosphate-buffered saline, 8 g/L NaCl, 0.2 g/L KCl, 1.44 g/L Na2HPO4, 0.24 g/L KH2PO4, pH 7.4). Then, PI was added to a final concentration of 10 μg/ml. After 30 min of incubation at 25°C, the cells were washed three times with PBS and immediately imaged with a fluorescence microscope.
# K. pneumoniae 5 [2] = experiment: Transcriptome analysis (RNA sequencing, FPKM, DESeq); assay type: cell-based, Klebsiella pneumoniae; conditions: Kp, Ta 16 μg/ml or Lvf 32 μg/ml, 30 min, 37°C
# Description: (§1) The Vitek 32 system (bioMerieux, France) and 16S rDNA sequencing were used to verify the clinical isolates A. baumannii 1408, P. aeruginosa 1409, Klebsiella pneumoniae 5 and E. coli 513, which were grown overnight in Luria-Bertani (LB) medium at 37°C with constant shaking at 220 rpm to reach the middle of their logarithmic growth phase. […] After the addition of 2 volumes of RNAprotect Bacteria Reagent (QIAGEN) to stabilized RNA, samples were vortexed for 5 s, incubated for 5 min at room temperature (15–25°C) and collected by centrifugation at 4°C for 5 min at 4000 g.
# (§2) RNA isolation and sequencing were performed by Novogene Bioinformatics Technology Co., Ltd. (Beijing, China) as previously described ([Liu B. et al., 2014]). Clean reads were mapped to the corresponding bacterial genomes using Bowtie 2 software ([Langmead and Salzberg, 2012]). Gene expression was calculated using the FPKM (expected number of fragments per kilobase of transcript sequence per millions of base pairs sequenced) method with HTSeq software (union model) ([Anders et al., 2015]). Differentially expressed genes were selected based on the DESeq R package with Padj values < 0.05 ([Anders and Huber, 2010]). KEGG pathway analysis was performed using KOBAS (2.0), and the corrected p value cut-off was set at 0.05 ([Li et al., 2015]).
# E. coli 513 [3] = experiment: MIC against clinical isolate; assay type: cell-based, Escherichia coli
# A. baumannii 1408 [4] = experiment: MIC against MDR clinical isolate; assay type: cell-based, Acinetobacter baumannii
# P. aeruginosa 1409 [5] = experiment: MIC against MDR clinical isolate; assay type: cell-based, Pseudomonas aeruginosa
# P. aeruginosa 1409 [6] = assay type: cell-based, Pseudomonas aeruginosa; conditions: Pa, Ta 16 μg/ml or Lvf 32 μg/ml, 30 min, 37°C
# Description: as §1, §2
# K. pneumoniae 5 [7] = experiment: MIC against clinical isolate; assay type: cell-based, Klebsiella pneumoniae
# A. baumannii 1408 [8] = experiment: Transcriptome analysis (RNA sequencing, FPKM, DESeq); assay type: cell-based, Acinetobacter baumannii; conditions: Ab, Ta 16 μg/ml or Lvf 32 μg/ml, 30 min, 37°C
# Description: as §1, §2
# E. coli 513 [9] = experiment: as above; assay type: cell-based, Escherichia coli; conditions: Ec, Ta 16 μg/ml or Lvf 32 μg/ml, 30 min, 37°C
# Description: as §1, §2
# [10] = target: T1, 3-ketoacyl carrier protein reductase …; experiment: SPR; tachyplesin III amine-coupled to a CM5 chip (approximately 1000 resonance units); FabG (1.25, 2.5, 5, 10 μg/mL) in HBS-N running buffer injected at 20 μl/min for 6 min; Biacore 3000; 1:1 Langmuir binding model; conditions: both partners purified
molecule,measurement,setting,value
C[C@H]1COc2c(N3CCN(C)CC3)c(F)cc3c(=O)c(C(=O)O)cn1c23 [levofloxacin],membrane integrity (PI fluorescence),[1]; 1/4× MIC,did not affect the integrity of bacterial membranes
same,membrane integrity (PI fluorescence),[1]; 4× MIC (high concentration),some of the bacterial membranes were broken slightly
same,FPKM of gene KPNJ2_01473,K. pneumoniae 5 [2]; control 0,1.282
same,FPKM of gene KPNJ2_01064,K. pneumoniae 5 [2]; control 3.68216,0
same,FPKM of gene KPNJ2_04725,K. pneumoniae 5 [2]; control 22.8601,21.9489
same,FPKM of gene KPNJ2_03426 (3-ketoacyl-acyl carrier protein reductase),K. pneumoniae 5 [2]; control 41.4,80.6
same,FPKM of gene KPNJ2_01584 (Enoyl-CoA hydratase),K. pneumoniae 5 [2]; control 128,190
same,FPKM of gene KPNJ2_04200,K. pneumoniae 5 [2]; control 4040.19,4507.07
same,readcount of gene KPNJ2_00001 in treated sample,K. pneumoniae 5 [2]; differential analysis,119.391
same,readcount of gene KPNJ2_00002 in treated sample,K. pneumoniae 5 [2]; differential analysis,95.8073
same,readcount of gene KPNJ2_00003 in treated sample,K. pneumoniae 5 [2]; differential analysis,27.2682
same,readcount of gene KPNJ2_00004 in treated sample,K. pneumoniae 5 [2]; differential analysis,368.489
same,readcount of gene KPNJ2_00005 in treated sample,K. pneumoniae 5 [2]; differential analysis,375.122
same,32 μg/ml levofloxacin expressed as multiple of MIC,E. coli 513 [3],1 × MIC
same,32 μg/ml levofloxacin expressed as multiple of MIC,A. baumannii 1408 [4],1 × MIC
same,32 μg/ml levofloxacin expressed as multiple of MIC,P. aeruginosa 1409 [5]; P. aeruginosa 1409,2 × MIC
same,1/4× MIC,P. aeruginosa 1409 [5]; P. aeruginosa strain 1409,4 µg/mL
same,4× MIC,P. aeruginosa 1409 [5]; P. aeruginosa strain 1409,64 µg/mL
same,FPKM of gene PADK2_26395,P. aeruginosa 1409 [6]; control 7.76041,10.0809
same,FPKM of gene PADK2_02440,P. aeruginosa 1409 [6]; control 10.8663,14.499
same,FPKM of gene PADK2_25635,P. aeruginosa 1409 [6]; control 48.5098,42.4346
same,FPKM of gene PADK2_02970,P. aeruginosa 1409 [6]; control 53.0528,66.953
same,FPKM of gene PADK2_25405 (3-ketoacyl-acyl carrier protein reductase),P. aeruginosa 1409 [6]; control 56,43
same,FPKM of gene PADK2_17500,P. aeruginosa 1409 [6]; control 97.7062,119.076
same,FPKM of gene PADK2_09275 (3-hydroxyacyl-CoA dehydrogenase),P. aeruginosa 1409 [6]; control 361,369
same,readcount of gene Novel00001 in treated sample,P. aeruginosa 1409 [6]; differential analysis,77.24
same,readcount of gene Novel00002 in treated sample,P. aeruginosa 1409 [6]; differential analysis,21.4195
same,readcount of gene Novel00003 in treated sample,P. aeruginosa 1409 [6]; differential analysis,79.1872
same,readcount of gene Novel00004 in treated sample,P. aeruginosa 1409 [6]; differential analysis,104.501
same,readcount of gene Novel00005 in treated sample,P. aeruginosa 1409 [6]; differential analysis,85.0289
same,32 μg/ml levofloxacin expressed as multiple of MIC,K. pneumoniae 5 [7],2 × MIC
same,FPKM of gene A1S_1815,A. baumannii 1408 [8]; control 0,0
same,FPKM of gene Novel00132,A. baumannii 1408 [8]; control 18.2658,8.387
same,FPKM of gene A1S_0707,A. baumannii 1408 [8]; control 51.3724,62.4914
same,FPKM of gene A1S_2182,A. baumannii 1408 [8]; control 136.449,191.991
same,FPKM of gene A1S_2061 (3-ketoacyl-acyl carrier protein reductase),A. baumannii 1408 [8]; control 323,328
same,FPKM of gene A1S_1368,A. baumannii 1408 [8]; control 2030.48,1961.71
same,readcount of gene A1S_0001 in treated sample,A. baumannii 1408 [8]; differential analysis,246.119
same,readcount of gene A1S_0002 in treated sample,A. baumannii 1408 [8]; differential analysis,308.109
same,readcount of gene A1S_0003 in treated sample,A. baumannii 1408 [8]; differential analysis,33.1432
same,readcount of gene A1S_0004 in treated sample,A. baumannii 1408 [8]; differential analysis,622.97
same,FPKM of gene b1943,E. coli 513 [9]; control 0,0
same,FPKM of gene b1815,E. coli 513 [9]; control 22.7313,15.6958
same,FPKM of gene b0242,E. coli 513 [9]; control 40.7621,43.1933
same,FPKM of gene b2495,E. coli 513 [9]; control 62.5019,46.4771
same,FPKM of gene b4004,E. coli 513 [9]; control 64.6122,63.7219
same,FPKM of gene b3846 (3-hydroxyacyl-CoA dehydrogenase),E. coli 513 [9]; control 97,94
same,FPKM of gene b1093 (3-ketoacyl-acyl carrier protein reductase),E. coli 513 [9]; control 633,627
same,readcount of gene b0001 in treated sample,E. coli 513 [9]; differential analysis,28.7713
same,readcount of gene b0002 in treated sample,E. coli 513 [9]; differential analysis,277.558
same,readcount of gene b0003 in treated sample,E. coli 513 [9]; differential analysis,192.091
same,readcount of gene b0004 in treated sample,E. coli 513 [9]; differential analysis,222.554
same,readcount of gene b0005 in treated sample,E. coli 513 [9]; differential analysis,14.3856
B1,binding result,[10],binds
